Converted amounts (≈) assume the structure as drawn. The source made the active and inactive calls. The rule behind the calls is not given here.
Key:
[1] = Selectivity index, ratio of CC50 for african green monkey vero cells to MIC for Escherichia coli ATCC 10536; format: functional
[2] = Selectivity index, ratio of CC50 for african green monkey vero cells to MIC for Bacillus subtilis ATCC 11774; format: functional
[3] = Selectivity index, ratio of CC50 for african green monkey vero cells to MIC for Staphylococcus aureus ATCC 25923; format: functional
[4] = test system: Salmonella typhimurium; test: Antibacterial activity against Salmonella typhimurium ATCC 51812 assessed as growth inhibition at 1 mg/ml after 24 hrs by agar diffusion method; format: functional, organism-based; conditions: Salmonella enterica subsp. enterica serovar Typhimurium
[5] = test system: Enterococcus faecalis; test: Antibacterial activity against Enterococcus faecalis ATCC 14506 assessed as growth inhibition at 1 mg/ml after 24 hrs by agar diffusion method; format: functional, organism-based
[6] = test system: Staphylococcus epidermidis; test: Antibacterial activity against Staphylococcus epidermidis ATCC 12228 assessed as growth inhibition at 1 mg/ml after 24 hrs by agar diffusion method; format: functional, organism-based
[7] = Cytotoxicity against african green monkey vero cells by MTT assay; format: cell-based; conditions: chlorocebus sabaeus
[8] = test system: Staphylococcus aureus; test: Antibacterial activity against methicillin-resistant Staphylococcus aureus ATCC 43300 assessed as growth inhibition at 1 mg/ml after 24 hrs by agar diffusion method; format: functional, organism-based
[9] = test system: Staphylococcus aureus; test: Bactericidal activity against Staphylococcus aureus ATCC 25923 by broth dilution method; format: functional
[10] = test system: Escherichia coli; test: Bactericidal activity against Escherichia coli ATCC 10536 by broth dilution method; format: functional
[11] = test system: Bacillus subtilis; test: Bactericidal activity against Bacillus subtilis ATCC 11774 by broth dilution method; format: functional
[12] = test system: Escherichia coli; test: Antibacterial activity against Escherichia coli ATCC 10536 assessed as growth inhibition by broth dilution method; format: functional
[13] = test system: Staphylococcus aureus; test: Antibacterial activity against Staphylococcus aureus ATCC 25923 assessed as growth inhibition by broth dilution method; format: functional
[14] = test system: Serratia marcescens; test: Antibacterial activity against Serratia marcescens ATCC 13880 assessed as growth inhibition at 1 mg/ml after 24 hrs by agar diffusion method; format: functional; conditions: ATCC 13880, 24 h, read-out: DIZ
[15] = test system: Bacillus subtilis; test: Antibacterial activity against Bacillus subtilis ATCC 11774 assessed as growth inhibition by broth dilution method; format: functional
[16] = test system: Pseudomonas aeruginosa; test: Antibacterial activity against Pseudomonas aeruginosa ATCC 10145 assessed as growth inhibition at 1 mg/ml after 24 hrs by agar diffusion method; format: functional; conditions: ATCC 10145, 24 h, read-out: DIZ
[17] = test system: Escherichia coli; test: Antibacterial activity against Escherichia coli ATCC 10536 assessed as growth inhibition at 1 mg/ml after 24 hrs by agar diffusion method; format: functional; conditions: ATCC 10536, 24 h, read-out: DIZ
[18] = test system: Staphylococcus aureus; test: Antibacterial activity against Staphylococcus aureus ATCC 25923 assessed as growth inhibition at 1 mg/ml after 24 hrs by agar diffusion method; format: functional; conditions: ATCC 25923, 24 h, read-out: DIZ
[19] = test system: Bacillus subtilis; test: Antibacterial activity against Bacillus subtilis ATCC 11774 assessed as growth inhibition at 1 mg/ml after 24 hrs by agar diffusion method; format: functional; conditions: ATCC 11774, 24 h, read-out: DIZ
[20] = Selectivity index, ratio of CC50 for african green monkey vero cells to MIC for Pseudomonas aeruginosa ATCC 10145; format: functional
[21] = test system: Pseudomonas aeruginosa; test: Bactericidal activity against Pseudomonas aeruginosa ATCC 10145 by broth dilution method; format: functional
[22] = test system: Pseudomonas aeruginosa; test: Antibacterial activity against Pseudomonas aeruginosa ATCC 10145 assessed as growth inhibition by broth dilution method; format: functional

CC(=O)n1nc(N2CCCC2)c(C#N)c1N
Selectivity Index [1]: 0.18
Selectivity Index [2]: 0.18
Selectivity Index [3]: 0.18
growth inhibition (GI) [4]: inactive
growth inhibition (GI) [5]: inactive
growth inhibition (GI) [6]: inactive
CC50 [7]: 2810 µg/mL (≈ 12.8 mM)
growth inhibition (GI) [8]: inactive
MBC [9]: > 16000 µg/mL
MBC [10]: 16000 µg/mL (≈ 73 mM)
MBC [11]: 16000 µg/mL (≈ 73 mM)
MIC [12]: 8000 µg/mL (≈ 36.5 mM)
MIC [13]: 16000 µg/mL (≈ 73 mM)
zone of inhibition at 1000 µg/mL [14]: 6 mm
MIC [15]: 16000 µg/mL (≈ 73 mM)
zone of inhibition at 1000 µg/mL [16]: 6 mm
zone of inhibition at 1000 µg/mL [17]: 16 mm
zone of inhibition at 1000 µg/mL [18]: 14 mm
zone of inhibition at 1000 µg/mL [19]: 14 mm

N#Cc1c(N)nc2c(C#N)c(N3CCOCC3)nn2c1N1CCOCC1
growth inhibition (GI) [4]: inactive
growth inhibition (GI) [5]: inactive
growth inhibition (GI) [6]: inactive
growth inhibition (GI) [8]: inactive

N#Cc1c(N)nc2c(C#N)c(N3CCOCC3)nn2c1N1CCCCC1
growth inhibition (GI) [4]: inactive
growth inhibition (GI) [5]: inactive
growth inhibition (GI) [6]: inactive
growth inhibition (GI) [8]: inactive

Cc1cc(C)n2nc(N3CCOCC3)c(C#N)c2n1
growth inhibition (GI) [4]: inactive
growth inhibition (GI) [5]: inactive
growth inhibition (GI) [6]: inactive
growth inhibition (GI) [8]: inactive

CC(=O)c1nnc2c(C#N)c(N3CCCC3)nn2c1C
growth inhibition (GI) [4]: inactive
growth inhibition (GI) [5]: inactive
growth inhibition (GI) [6]: inactive
growth inhibition (GI) [8]: inactive

N#Cc1nnc2c(C#N)c(N3CCOCC3)nn2c1N
growth inhibition (GI) [4]: inactive
growth inhibition (GI) [5]: inactive
growth inhibition (GI) [6]: inactive
growth inhibition (GI) [8]: inactive

Cc1ccc(C)n1-c1[nH]nc(N2CCCCC2)c1C#N
Selectivity Index [20]: 0.35
Selectivity Index [1]: 0.18
Selectivity Index [2]: 0.35
Selectivity Index [3]: 0.18
growth inhibition (GI) [4]: inactive
growth inhibition (GI) [5]: inactive
growth inhibition (GI) [6]: inactive
CC50 [7]: 1400 µg/mL (≈ 5.2 mM)
growth inhibition (GI) [8]: inactive
MBC [21]: 8000 µg/mL (≈ 29.7 mM)
MBC [9]: 8000 µg/mL (≈ 29.7 mM)
MBC [10]: 8000 µg/mL (≈ 29.7 mM)
MBC [11]: 8000 µg/mL (≈ 29.7 mM)
MIC [12]: 8000 µg/mL (≈ 29.7 mM)
MIC [22]: 4000 µg/mL (≈ 14.9 mM)
MIC [13]: 8000 µg/mL (≈ 29.7 mM)
zone of inhibition at 1000 µg/mL [14]: 6 mm
MIC [15]: 4000 µg/mL (≈ 14.9 mM)
zone of inhibition at 1000 µg/mL [16]: 7 mm
zone of inhibition at 1000 µg/mL [17]: 7 mm
zone of inhibition at 1000 µg/mL [18]: 12 mm
zone of inhibition at 1000 µg/mL [19]: 16 mm

Cc1cc(O)n2nc(N3CCCC3)c(C#N)c2n1
growth inhibition (GI) [4]: inactive
growth inhibition (GI) [5]: inactive
growth inhibition (GI) [6]: inactive
growth inhibition (GI) [8]: inactive

Cc1cc(O)n2nc(N3CCCCC3)c(C#N)c2n1
growth inhibition (GI) [4]: inactive
growth inhibition (GI) [5]: inactive
growth inhibition (GI) [6]: inactive
growth inhibition (GI) [8]: inactive

CSc1c(C#N)c(N)nc2c(C#N)c(N3CCOCC3)nn12
growth inhibition (GI) [4]: inactive
growth inhibition (GI) [5]: inactive
growth inhibition (GI) [6]: inactive
growth inhibition (GI) [8]: inactive

N#Cc1nnc2c(C#N)c(N3CCCC3)nn2c1N
growth inhibition (GI) [4]: inactive
growth inhibition (GI) [5]: inactive
growth inhibition (GI) [6]: inactive
growth inhibition (GI) [8]: inactive

Cc1cc(C)n2nc(N3CCCC3)c(C#N)c2n1
growth inhibition (GI) [4]: inactive
growth inhibition (GI) [5]: inactive
growth inhibition (GI) [6]: inactive
growth inhibition (GI) [8]: inactive

Cc1ccc(C)n1-c1[nH]nc(N2CCCC2)c1C#N
Selectivity Index [1]: 0.07
Selectivity Index [2]: 0.14
Selectivity Index [3]: 0.07
growth inhibition (GI) [4]: inactive
growth inhibition (GI) [5]: inactive
growth inhibition (GI) [6]: inactive
CC50 [7]: 550 µg/mL (≈ 2.15 mM)
growth inhibition (GI) [8]: inactive
MBC [9]: 8000 µg/mL (≈ 31.3 mM)
MBC [10]: 16000 µg/mL (≈ 62.7 mM)
MBC [11]: 8000 µg/mL (≈ 31.3 mM)
MIC [12]: 8000 µg/mL (≈ 31.3 mM)
MIC [13]: 8000 µg/mL (≈ 31.3 mM)
zone of inhibition at 1000 µg/mL [14]: 6 mm
MIC [15]: 4000 µg/mL (≈ 15.7 mM)
zone of inhibition at 1000 µg/mL [16]: 6 mm
zone of inhibition at 1000 µg/mL [17]: 13 mm
zone of inhibition at 1000 µg/mL [18]: 7 mm
zone of inhibition at 1000 µg/mL [19]: 8 mm

CC(=O)c1nnc2c(C#N)c(N3CCOCC3)nn2c1C
growth inhibition (GI) [4]: inactive
growth inhibition (GI) [5]: inactive
growth inhibition (GI) [6]: inactive
growth inhibition (GI) [8]: inactive

N#Cc1c(N)nc2c(C#N)c(N3CCCC3)nn2c1N1CCCCC1
growth inhibition (GI) [4]: inactive
growth inhibition (GI) [5]: inactive
growth inhibition (GI) [6]: inactive
growth inhibition (GI) [8]: inactive

CC(=O)c1nnc2c(C#N)c(N3CCCCC3)nn2c1C
Selectivity Index [1]: 0.02
Selectivity Index [2]: 0.02
Selectivity Index [3]: 0.02
growth inhibition (GI) [4]: inactive
growth inhibition (GI) [5]: inactive
growth inhibition (GI) [6]: inactive
CC50 [7]: 312 µg/mL (≈ 1.1 mM)
growth inhibition (GI) [8]: inactive
MBC [9]: 16000 µg/mL (≈ 56.3 mM)
MBC [10]: 16000 µg/mL (≈ 56.3 mM)
MBC [11]: 16000 µg/mL (≈ 56.3 mM)
MIC [12]: 16000 µg/mL (≈ 56.3 mM)
MIC [13]: 16000 µg/mL (≈ 56.3 mM)
zone of inhibition at 1000 µg/mL [14]: 6 mm
MIC [15]: 16000 µg/mL (≈ 56.3 mM)
zone of inhibition at 1000 µg/mL [16]: 6 mm
zone of inhibition at 1000 µg/mL [17]: 8 mm
zone of inhibition at 1000 µg/mL [18]: 9 mm
zone of inhibition at 1000 µg/mL [19]: 10 mm

CC(=O)n1nc(N2CCOCC2)c(C#N)c1N
growth inhibition (GI) [4]: inactive
growth inhibition (GI) [5]: inactive
growth inhibition (GI) [6]: inactive
growth inhibition (GI) [8]: inactive

CC(=O)n1nc(N2CCCCC2)c(C#N)c1N
Selectivity Index [2]: 0.06
growth inhibition (GI) [4]: inactive
growth inhibition (GI) [5]: inactive
growth inhibition (GI) [6]: inactive
CC50 [7]: 1010 µg/mL (≈ 4.35 mM)
growth inhibition (GI) [8]: inactive
MBC [9]: > 16000 µg/mL
MBC [10]: 16000 µg/mL (≈ 68.6 mM)
MBC [11]: 16000 µg/mL (≈ 68.6 mM)
MIC [12]: 16000 µg/mL (≈ 68.6 mM)
MIC [13]: 16000 µg/mL (≈ 68.6 mM)
zone of inhibition at 1000 µg/mL [14]: 6 mm
MIC [15]: 16000 µg/mL (≈ 68.6 mM)
zone of inhibition at 1000 µg/mL [16]: 6 mm
zone of inhibition at 1000 µg/mL [17]: 10 mm
zone of inhibition at 1000 µg/mL [18]: 10 mm
zone of inhibition at 1000 µg/mL [19]: 6 mm

CSc1c(C#N)c(N)nc2c(C#N)c(N3CCCC3)nn12
growth inhibition (GI) [4]: inactive
growth inhibition (GI) [5]: inactive
growth inhibition (GI) [6]: inactive
growth inhibition (GI) [8]: inactive

GENTAMICIN
MBC [21]: 2 µg/mL
MIC [22]: 1 µg/mL

N#Cc1c(N)nc2c(C#N)c(N3CCCC3)nn2c1N1CCOCC1
growth inhibition (GI) [4]: inactive
growth inhibition (GI) [5]: inactive
growth inhibition (GI) [6]: inactive
growth inhibition (GI) [8]: inactive

Cc1ccc(C)n1-c1[nH]nc(N2CCOCC2)c1C#N
Selectivity Index [1]: 0.06
Selectivity Index [2]: 0.13
Selectivity Index [3]: 0.06
growth inhibition (GI) [4]: inactive
growth inhibition (GI) [5]: inactive
growth inhibition (GI) [6]: inactive
CC50 [7]: 254 µg/mL (≈ 0.936 mM)
growth inhibition (GI) [8]: inactive
MBC [9]: 4000 µg/mL (≈ 14.7 mM)
MBC [10]: 8000 µg/mL (≈ 29.5 mM)
MBC [11]: 4000 µg/mL (≈ 14.7 mM)
MIC [12]: 4000 µg/mL (≈ 14.7 mM)
MIC [13]: 2000 µg/mL (≈ 7.37 mM)
zone of inhibition at 1000 µg/mL [14]: 6 mm
MIC [15]: 2000 µg/mL (≈ 7.37 mM)
zone of inhibition at 1000 µg/mL [16]: 6 mm
zone of inhibition at 1000 µg/mL [17]: 10 mm
zone of inhibition at 1000 µg/mL [18]: 10 mm
zone of inhibition at 1000 µg/mL [19]: 14 mm

From ChEMBL document CHEMBL2390874, “Synthesis, antibacterial activity and cytotoxicity of new fused pyrazolo[1,5-a]pyrimidine and pyrazolo[5,1-c][1,2,4]triazine derivatives from new 5-aminopyrazoles” (Eur J Med Chem, 2013)
